Data as given in patent publication US6855843B2, “Inhibitors of α4 mediated cell adhesion” (Tanabe Seiyaku Co., Ltd., priority 1998, dated 2005).
pIC50: −log10 of the molar value.

How the values were obtained:
[1] = biological target: T1, α4β7 (adhesion of RPMI cells to CS-1) (Homo sapiens, UniProt P13612+P26010); test: RPMI-CS-1 cell adhesion assay; type: cell-based; conditions: adhesion of RPMI B-cell line (expresses α4β7) to CS-1 peptide coated microwells; read-out: RPMI-CS-1 IC50 value range
T1 construct: endogenous in cells
T1 sequence (P13612 34-1032): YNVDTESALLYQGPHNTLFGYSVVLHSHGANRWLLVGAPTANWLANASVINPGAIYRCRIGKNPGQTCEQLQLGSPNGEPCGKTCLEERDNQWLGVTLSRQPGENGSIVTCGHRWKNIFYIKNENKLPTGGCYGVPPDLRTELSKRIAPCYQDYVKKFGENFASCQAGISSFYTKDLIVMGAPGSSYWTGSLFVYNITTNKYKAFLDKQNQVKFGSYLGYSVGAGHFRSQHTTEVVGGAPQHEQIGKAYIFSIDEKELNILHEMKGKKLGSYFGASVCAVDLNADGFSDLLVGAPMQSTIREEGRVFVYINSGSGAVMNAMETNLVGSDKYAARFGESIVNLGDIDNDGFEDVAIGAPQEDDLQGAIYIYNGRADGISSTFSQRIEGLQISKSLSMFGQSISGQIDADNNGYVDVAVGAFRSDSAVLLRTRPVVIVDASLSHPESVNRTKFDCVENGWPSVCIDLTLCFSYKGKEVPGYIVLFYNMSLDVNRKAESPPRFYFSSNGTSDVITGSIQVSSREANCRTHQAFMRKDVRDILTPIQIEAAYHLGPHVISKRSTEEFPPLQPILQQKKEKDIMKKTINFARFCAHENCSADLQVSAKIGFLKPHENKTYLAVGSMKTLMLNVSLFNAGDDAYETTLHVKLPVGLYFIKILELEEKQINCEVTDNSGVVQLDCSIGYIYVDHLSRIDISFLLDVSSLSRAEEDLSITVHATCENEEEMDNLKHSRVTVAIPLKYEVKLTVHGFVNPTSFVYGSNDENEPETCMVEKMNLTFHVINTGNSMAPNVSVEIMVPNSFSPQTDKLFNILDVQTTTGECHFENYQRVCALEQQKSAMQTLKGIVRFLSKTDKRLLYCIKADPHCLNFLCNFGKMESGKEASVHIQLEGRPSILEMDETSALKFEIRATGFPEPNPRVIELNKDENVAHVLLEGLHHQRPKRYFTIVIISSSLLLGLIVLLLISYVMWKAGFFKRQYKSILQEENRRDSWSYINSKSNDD
T1 sequence (P26010 20-798): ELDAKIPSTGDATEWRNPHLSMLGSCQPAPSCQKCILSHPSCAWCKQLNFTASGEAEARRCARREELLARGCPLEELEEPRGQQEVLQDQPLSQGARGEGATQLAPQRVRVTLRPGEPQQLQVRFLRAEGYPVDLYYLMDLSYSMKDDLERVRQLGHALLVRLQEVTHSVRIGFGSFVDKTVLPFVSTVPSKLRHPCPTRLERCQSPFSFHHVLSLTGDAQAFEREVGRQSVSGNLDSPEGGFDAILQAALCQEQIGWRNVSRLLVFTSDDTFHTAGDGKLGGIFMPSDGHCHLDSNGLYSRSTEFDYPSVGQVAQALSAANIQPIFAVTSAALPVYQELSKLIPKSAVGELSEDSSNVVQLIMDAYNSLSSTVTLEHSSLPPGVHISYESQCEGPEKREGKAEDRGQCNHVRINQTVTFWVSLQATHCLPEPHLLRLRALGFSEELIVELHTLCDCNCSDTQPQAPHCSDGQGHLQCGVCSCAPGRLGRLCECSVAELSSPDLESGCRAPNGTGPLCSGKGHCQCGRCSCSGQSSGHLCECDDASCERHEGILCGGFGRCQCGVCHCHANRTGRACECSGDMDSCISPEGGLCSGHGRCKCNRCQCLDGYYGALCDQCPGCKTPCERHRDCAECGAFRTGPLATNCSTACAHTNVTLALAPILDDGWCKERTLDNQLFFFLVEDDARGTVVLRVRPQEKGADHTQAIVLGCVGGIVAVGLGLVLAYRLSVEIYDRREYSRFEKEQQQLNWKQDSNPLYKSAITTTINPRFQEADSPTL

Row | melting point [°C] | pIC50 [1] | Compound
1 | 118 to 120 | > 6.52 | COc1cccc(OC)c1-c1ccc(C[C@H](NC(=O)c2c(Cl)cccc2Cl)C(=O)O)cc1NS(C)(=O)=O [Example 298]
2 | 199 | > 6.52 | COc1cccc(OC)c1-c1ccc(C[C@H](NC(=O)c2c(Cl)cc(-c3cccn3C)cc2Cl)C(=O)O)cc1 [Example 302, N-[2,6-Dichloro-4-(1-methyl-2-pyrrolyl)benzoyl]-4-(2,6-dimethoxyphenyl)-L-phenylalanine]
3 | 178.9 | > 6.52 | COc1cc(CCN2CCN(C)CC2)cc(OC)c1-c1ccc(C[C@H](NC(=O)c2c(Cl)cccc2Cl)C(=O)O)cc1 [Example 264, N-(2,6-Dichlorobenzoyl)-4-[2,6-dimethoxy-4-[2-(4-methyl-1-piperazinyl)ethyl]phenyl]-L-phenylalanine]
4 | 158 to 159 | > 6.52 | CCCCC(O)c1cc(C[C@H](NC(=O)c2c(Cl)cccc2Cl)C(=O)O)ccc1-c1ccccc1OC (stereo partly drawn) [Example 342]
5 | 142 to 144 | > 6.52 | COc1cccc(OC)c1-c1ccc(C[C@H](NC(=O)c2c(Cl)cccc2Cl)C(=O)O)cc1NC(C)=O [Example 297, N-(2,6-Dichlorobenzoyl)-4-(2,6-dimethoxyphenyl)-3-acetylamino-L-phenylalanine]
6 | 156 to 157 | > 6.52 | COCOc1ccc(OC)c(-c2ccc(C[C@H](NC(=O)c3c(Cl)cccc3Cl)C(=O)O)cc2)c1OC [Example 174, N-(2,6-Dichlorobenzoyl)-4-(2,6-dimethoxy-3-methoxymethoxyphenyl)-L-phenylalanine]
7 | 261 to 262 | > 6.52 | COc1cc(C(=O)NC(C)C)cc(OC)c1-c1ccc(C[C@H](NC(=O)c2c(Cl)cccc2Cl)C(=O)O)cc1 [Example 168]
8 | 206 to 207 | > 6.52 | COc1cccc(OCCF)c1-c1ccc(C[C@H](NC(=O)c2c(Cl)cccc2Cl)C(=O)O)cc1 [Example 228, N-(2,6-Dichlorobenzoyl)-4-[6-methoxy-2-(2-fluoroethoxy)phenyl]-L-phenylalanine]
9 | 215 | > 6.52 | COc1cccc(OC)c1-c1ccc(C[C@H](NC(=O)c2c(Cl)cc(-c3ccccc3)cc2Cl)C(=O)O)cc1 [Example 301, N-(2,6-Dichloro-4-phenylbenzoyl)-4-(2,6-dimethoxyphenyl)-L-phenylalanine]
10 | 234.8 | > 6.52 | COc1cccc(OC)c1-c1ccc(C[C@H](NC(=O)c2c(Cl)ccc(Br)c2Cl)C(=O)O)cc1 [Example 331, N-(2,6-Dichloro-3-bromobenzoyl)-4-(2,6-dimethoxyphenyl)-L-phenylalanine]
11 | 150 | > 6.52 | CCOC(=O)[C@H](Cc1ccc(-c2c(OC)cc(CN3CCCCC3)cc2OC)cc1)NC(=O)c1c(F)cccc1F [Example 354]
12 | 185 to 187 | > 6.52 | CCOC(=O)Nc1cc(Cl)c(C(=O)N[C@@H](Cc2ccc(-c3c(OC)cccc3OC)cc2)C(=O)O)c(Cl)c1 [Example 200]
13 | 268 to 269 | > 6.52 | COc1cc(C(=O)NCCN2CCOCC2)cc(OC)c1-c1ccc(C[C@H](NC(=O)c2c(Cl)cccc2Cl)C(=O)O)cc1 [Example 171]
14 | 186.5 | > 6.52 | COc1cccc(OC)c1-c1ccc(C[C@H](NC(=O)c2c(Cl)cc(-c3cscn3)cc2Cl)C(=O)O)cc1 [Example 307, N-[4-(1,3-Thiazol-4-yl)-2,6-dichlorobenzoyl]-4-(2,6-dimethoxyphenyl)-L-phenylalanine]
15 | 118 to 119 | > 6.52 | CCC(=O)c1cc(C[C@H](NC(=O)c2c(Cl)cccc2Cl)C(=O)O)ccc1-c1ccccc1OC [Example 337]
16 | 194 to 195 | > 6.52 | COc1cc(NC(=O)Nc2ccccc2C)cc(OC)c1-c1ccc(C[C@H](NC(=O)c2c(Cl)cccc2Cl)C(=O)O)cc1 [Example 161, N-(2,6-Dichlorobenzoyl)-4-[4-[3-(2-methylphenyl)ureido]-2,6-dimethoxyphenyl]-L-phenylalanine]
17 | 164 to 165 | > 6.52 | COc1ccc(O)c(OC)c1-c1ccc(C[C@H](NC(=O)c2c(Cl)cccc2Cl)C(=O)O)cc1 [Example 175, N-(2,6-Dichlorobenzoyl)-4-(2,6-dimethoxy-3-hydroxyphenyl)-L-phenylalanine]
18 | 109 to 111 | 6.00 to 6.52 | CC(=O)c1cc(C[C@H](NC(=O)c2c(Cl)cccc2Cl)C(=O)O)ccc1-c1ccccc1 [Example 72, 3-Acetyl-N-(2,6-dichlorobenzoyl)-4-phenyl-L-phenylalanine]
19 | 222 to 223 | > 6.52 | COc1cc(C(=O)NCCCO)cc(OC)c1-c1ccc(C[C@H](NC(=O)c2c(Cl)cccc2Cl)C(=O)O)cc1 [Example 169]
20 | 231 to 232 | > 6.52 | COc1cc(C(F)(F)F)cc(OC)c1-c1ccc(C[C@H](NC(=O)c2c(Cl)cccc2Cl)C(=O)O)cc1 [Example 321, N-(2,6-Dichlorobenzoyl)-4-[2,6-dimethoxy-4-(trifluoromethyl)phenyl]-L-phenylalanine]
21 | 259 to 260 | 6.00 to 6.52 | O=C(N[C@@H](Cc1ccc(-c2c(C(F)(F)F)cccc2C(F)(F)F)cc1)C(=O)O)c1c(Cl)cccc1Cl [Example 146]
22 | 227 to 228 | > 6.52 | COc1ccc(C(N)=O)c(OC)c1-c1ccc(C[C@H](NC(=O)c2c(Cl)cccc2Cl)C(=O)O)cc1 [Example 326, N-(2,6-Dichlorobenzoyl)-4-(2,6-dimethoxy-3-carbamoylphenyl)-L-phenylalanine]
23 | 206 to 207 | > 6.52 | CNC(=O)Nc1cc(OC)c(-c2ccc(C[C@H](NC(=O)c3c(Cl)cccc3Cl)C(=O)O)cc2)c(OC)c1 [Example 160, N-(2,6-Dichlorobenzoyl)-4-[4-(3-methylureido)-2,6-dimethoxyphenyl]-L-phenylalanine]
24 | 217 to 219 | > 6.52 | COc1ccc(C(N)=O)c(OC)c1-c1ccc(C[C@H](NC(=O)c2c(Cl)cc(NC(N)=O)cc2Cl)C(=O)O)cc1 [Example 205, N-(4-Ureido-2,6-dichlorobenzoyl)-4-(3-carbamoyl-2,6-dimethoxyphenyl)-L-phenylalanine]
25 | 115 to 117 | 6.00 to 6.52 | CC(O)c1cc(C[C@H](NC(=O)c2c(Cl)cccc2Cl)C(=O)O)ccc1-c1ccccc1 (stereo partly drawn) [Example 74, N-(2,6-Dichlorobenzoyl)-3-(1-hydroxyethyl)-4-phenyl-L-phenylalanine]
26 | 167 to 168 | 6.00 to 6.52 | COCCOc1ccc2c(c1-c1ccc(C[C@H](NC(=O)c3c(Cl)cccc3Cl)C(=O)O)cc1)OCO2 [Example 233, N-(2,6-Dichlorobenzoyl)-4-[2,3-methylenedioxy-6-(2-methoxyethoxy)phenyl]-L-phenylalanine]

Row | Compound | melting point [°C] | pIC50 [1]
27 | C=CCN(C(=O)OC(C)(C)C)c1cc(OC)c(-c2ccc(C[C@H](NC(=O)c3c(Cl)cccc3Cl)C(=O)O)cc2)c(OC)c1 [Example 155, N-(2,6-Dichlorobenzoyl)-4-[4-(N-allyl-N-tert-butoxycarbonylamino)-2,6-dimethoxyphenyl]-L-phenylalanine] | 138 to 139 | > 6.52
